In the supplement of paper PMC10307832:

compound: CCn1c(-c2nonc2N)nc2c(C#CC(C)(C)O)ncc(OC[C@H]3CCCNC3)c21; assay: relative viability (nuclei count vs DMSO), 5 days (fraction); higher = more cells survive; conditions: 0.01 µM
How it was run: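 Nuclei counted with MetaXpress define viability as the ratio of treated to vehicle wells, given as a median across plates. The lung cancer cell lines were in 1536-well plates, pinned with five √10-spaced library-drug doses and imaged at 4× after 5 days and Hoechst staining. Plates passed with control CV below 25% and at least one doubling.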

Cell Line | relative viability
BEN | 0.988
HARA | 0.85
HCC-78 | 0.882
NCI-H322M | 0.887
LCLC-97TM1 | 0.989
NCI-H2009 | 1
A-427 | 0.994
NCI-H661 | 1.01
NCI-H1734 | 0.95
NCI-H460 | 0.977
NCI-H2347 | 1
SK-LU-1 | 1.06
NCI-H1395 | 0.848
201T | 0.95
NCI-H1915 | 0.965
HCC-827 | 1.06
LXF-289 | 1.03

same assay, conditions: 0.03162 µM

Cell Line | relative viability
Calu-6 | 1.02
HCC-366 | 1.05
NCI-H1666 | 0.956
NCI-H596 | 0.962
LK-2 | 1.06
NCI-H2087 | 1.05
SK-MES-1 | 1.01
H3255 | 0.949
COR-L23 | 1.04
COR-L 105 | 0.961
IA-LM | 1.05
LOU-NH91 | 0.924
NCI-H2170 | 1.01
NCI-H2405 | 0.934
HOP-62 | 0.945
HCC-44 | 0.852
A549 | 0.995
LU99A | 1.13

Cell Line | relative viability
BEN | 1.03
HARA | 0.97
HCC-78 | 0.926
NCI-H322M | 0.763
LCLC-97TM1 | 1.01
NCI-H2009 | 1
A-427 | 1.06
NCI-H661 | 1.03
NCI-H1734 | 0.978
NCI-H460 | 0.983
NCI-H2347 | 1.03
SK-LU-1 | 1.09
NCI-H1395 | 0.693
201T | 0.987
NCI-H1915 | 1.03
HCC-827 | 1.03
LXF-289 | 0.991

same assay, conditions: 0.1 µM

Cell Line | relative viability
Calu-6 | 1.02
HCC-366 | 0.805
NCI-H1666 | 1.01
NCI-H596 | 0.752
LK-2 | 0.815
NCI-H2087 | 1.04
SK-MES-1 | 1.02
H3255 | 0.998
COR-L23 | 0.986
COR-L 105 | 1.01
IA-LM | 1.01
LOU-NH91 | 0.989
NCI-H2170 | 0.996
NCI-H2405 | 0.973
HOP-62 | 1.01
HCC-44 | 0.979
A549 | 0.996
LU99A | 0.889

Cell Line | relative viability
BEN | 0.735
HARA | 0.722
HCC-78 | 0.971
NCI-H322M | 0.839
LCLC-97TM1 | 1.16
NCI-H2009 | 1.02
A-427 | 0.918
NCI-H661 | 0.976
NCI-H1734 | 0.893
NCI-H460 | 0.983
NCI-H2347 | 0.956
SK-LU-1 | 0.88
NCI-H1395 | 0.762
201T | 0.959
NCI-H1915 | 0.917
HCC-827 | 1
LXF-289 | 1.03

same assay, conditions: 0.3162 µM

Cell Line | relative viability
Calu-6 | 0.982
HCC-366 | 0.998
NCI-H1666 | 0.949
NCI-H596 | 0.936
LK-2 | 0.913
NCI-H2087 | 1.06
SK-MES-1 | 0.944
H3255 | 0.856
COR-L23 | 0.973
COR-L 105 | 0.843
IA-LM | 0.852
LOU-NH91 | 0.9
NCI-H2170 | 0.91
NCI-H2405 | 0.969
HOP-62 | 0.976
HCC-44 | 0.974
A549 | 0.896
LU99A | 0.854

Cell Line | relative viability
BEN | 0.935
HARA | 0.876
HCC-78 | 0.962
NCI-H322M | 0.827
LCLC-97TM1 | 0.854
NCI-H2009 | 0.95
A-427 | 0.965
NCI-H661 | 1.01
NCI-H1734 | 0.932
NCI-H460 | 0.998
NCI-H2347 | 1
SK-LU-1 | 0.953
NCI-H1395 | 0.737
201T | 0.952
NCI-H1915 | 0.983
HCC-827 | 0.986
LXF-289 | 0.972

same assay, conditions: 1 µM

Cell Line | relative viability
Calu-6 | 1.03
HCC-366 | 0.99
NCI-H1666 | 0.954
NCI-H596 | 1.06
LK-2 | 0.872
NCI-H2087 | 0.915
SK-MES-1 | 0.993
H3255 | 0.904
COR-L23 | 1.04
COR-L 105 | 1.04
IA-LM | 0.853
LOU-NH91 | 0.888
NCI-H2170 | 0.958
NCI-H2405 | 0.993
HOP-62 | 1.01
HCC-44 | 0.993
A549 | 0.951
LU99A | 0.922

Cell Line | relative viability
BEN | 0.962
HARA | 0.778
HCC-78 | 0.844
NCI-H322M | 0.828
LCLC-97TM1 | 0.944
NCI-H2009 | 0.932
A-427 | 1.08
NCI-H661 | 0.972
NCI-H1734 | 0.86
NCI-H460 | 0.949
NCI-H2347 | 0.93
SK-LU-1 | 0.966
NCI-H1395 | 0.705
201T | 0.986
NCI-H1915 | 0.996
HCC-827 | 0.99
LXF-289 | 1.11
